How the values were obtained:
Assay in all cases: cell viability (% survival relative to DMSO control); higher = less cytotoxic
Conditions in all cases: 72 h
[1] = system: myeloid leukemia patient primary cells Pat.6
Summary of the method: (§1)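 Seventy compounds were pre-printed on 384-well plates at five tenfold concentrations between 1 and 10,000 nM, in duplicate. Thawed mononuclear cells purified by Ficoll from AML or CML patients were added at 10,000 cells/well in RPMI 1640 with 10% FBS for 72 h. Viability by CellTiter-Glo was normalised to DMSO and 10 μM proteasome-inhibitor wells. Where stated, area under the curve was taken from log-logistic fits made with the drc and PharmacoGx R packages, each fit having four parameters.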

[2] = system: myeloid leukemia patient primary cells Pat.8
Summary of the method: as §1

[3] = system: myeloid leukemia patient primary cells Pat.15
Summary of the method: as §1

[4] = system: myeloid leukemia patient primary cells Pat.4
Summary of the method: as §1

[5] = system: myeloid leukemia patient primary cells Pat.10
Summary of the method: as §1

[6] = system: myeloid leukemia patient primary cells Pat.7
Summary of the method: as §1

[7] = system: myeloid leukemia patient primary cells Pat.14
Summary of the method: as §1

[8] = system: myeloid leukemia patient primary cells Pat.12
Summary of the method: as §1

[9] = system: myeloid leukemia patient primary cells Pat.3
Summary of the method: as §1

MV4-11 = system: MV4-11
Description: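 8x8 drug-combination matrices (0–5000 nM; rosiglitazone and lestaurtinib 0–1000 nM) were run in MV4-11 cells for 72 h with CellTiter-Glo read-out. Survival is normalised to DMSO and 10 µM bortezomib and clipped at 100%.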

O=C(c1c2ccccc2cc2ccccc12)N1CCC(N2CCC[C@@H](C(=O)N3CCOCC3)C2)CC1
cell viability [%]
Conditions	[1]	[2]	[3]	[4]	[5]	[6]	[7]	[8]	[9]
1 nM	99.8	87.7	93.9	92.6	88.3	94.1	88.9	> 100	> 100
10 nM	96.8	> 100	94.5	95	67.9	87.2	98.9	92	96.9
100 nM	96.6	93.3	84.5	90.2	78.7	87.3	98.2	99.7	> 100
1000 nM	74.9	69.3	71.3	65.1	29.7	19	56.4	80.6	52.6
10000 nM	96.6	87.5	88.6	60.7	80.8	76.8	94.4	96.9	78.8

c1ccc2c(c1)SCc1c-2[nH]c2ccccc12
cell viability [%]
Conditions	[1]	[2]	[3]	[4]	[5]	[6]	[7]	[8]	[9]
1 nM	98.8	92.5	94.1	95.6	73.8	> 100	95.4	96.4	96.1
10 nM	82.9	67.3	97.3	83.4	59.9	72.5	54.1	96.2	76.1
100 nM	95	69.9	89.1	91	41.9	> 100	67.2	94.1	89.8
1000 nM	88.3	75.9	59.8	67.8	3.78	41.6	4.19	81.1	2.3
10000 nM	0.384	0.503	0.46	< 0	42.4	< 0	6.72	0.896	< 0

CCC(CC#N)OC(=O)N[C@@H](C)c1cccc(NC(=O)Nc2ccc(-c3cnco3)c(OC)c2)c1 (stereo in doubt) [AVN-944]
cell viability [%]
Conditions	[1]	[2]	[3]	[4]	[5]	[6]	[7]	[8]	[9]
1 nM	97.1	82.5	94.9	86	> 100	98.1	88.2	98.7	> 100
10 nM	90.8	92.3	> 100	90.7	66.9	91.5	97.5	> 100	80.4
100 nM	92.9	86.4	83.3	92.9	41.6	25.3	84.9	87.7	51.2
1000 nM	87.4	68.7	89.7	63	58.3	17.6	63.5	> 100	29.3
10000 nM	64	58.1	71.1	33.4	4.94	< 0	34.3	92.9	20

CN(C)C(=O)n1nnnc1Cc1ccc(-c2ccccc2)cc1 + CCOC(=O)N1c2ccc(C(F)(F)F)cc2[C@@H](N(Cc2cc(C(F)(F)F)cc(C(F)(F)F)c2)C(=O)OC)C[C@H]1CC [Torcetrapib]
cell viability [%], MV4-11
Conditions	drug1 concentration 5 nM	drug1 concentration 10 nM	drug1 concentration 50 nM	drug1 concentration 100 nM	drug1 concentration 500 nM	drug1 concentration 1000 nM	drug1 concentration 5000 nM
drug2 concentration 5 nM	> 100	95	> 100	89.1	76.8	> 100	0.81
drug2 concentration 10 nM	94.9	96	> 100	85	74.3	79.8	3.27
drug2 concentration 50 nM	> 100	> 100	> 100	87.6	88.5	97.3	4.29
drug2 concentration 100 nM	> 100	> 100	> 100	> 100	> 100	77.1	1.95
drug2 concentration 500 nM	> 100	> 100	> 100	98	> 100	> 100	1.23
drug2 concentration 1000 nM	98	99.8	85.5	93	99.7	> 100	2.41
drug2 concentration 5000 nM	98.2	> 100	> 100	98.2	> 100	94.2	2.53

Oc1ncc(F)c(O)n1 [5-fluorouracil]
cell viability [%]
Conditions	[1]	[2]	[3]	[4]	[5]	[6]	[7]	[8]	[9]
1 nM	> 100	85.8	83.4	90.8	> 100	89.7	94.6	94.2	90.4
10 nM	96.6	86.3	91.5	88.4	78.1	83.9	87	95.4	96.5
100 nM	95.8	94.5	96.7	92.1	65	82.8	90.3	87.6	94.5
1000 nM	99.3	80.1	91	88.9	68.9	92.8	90.2	95.5	96.6
10000 nM	98.5	98.7	93.9	60.6	50.5	50.8	84.9	91.4	41.9

Oc1ncc(F)c(O)n1 [5-fluorouracil] + C[C@]12O[C@H](C[C@]1(O)CO)n1c3ccccc3c3c4c(c5c6ccccc6n2c5c31)CNC4=O [Lestaurtinib]
cell viability [%], MV4-11
Conditions	drug1 concentration 5 nM	drug1 concentration 10 nM	drug1 concentration 50 nM	drug1 concentration 100 nM	drug1 concentration 500 nM	drug1 concentration 1000 nM	drug1 concentration 5000 nM
drug2 concentration 1 nM	88.4	> 100	> 100	88.1	69.4	68.5	12.8
drug2 concentration 5 nM	70.5	43	50.6	46	55.2	41.9	21.9
drug2 concentration 10 nM	26.4	23.6	28.6	42.1	19	25.7	13.7
drug2 concentration 50 nM	2.49	4.72	2.14	3.46	4.09	5.74	1.61
drug2 concentration 100 nM	3.32	0.99	1.1	1.76	0.68	3.09	-0.36
drug2 concentration 500 nM	0.17	-0.1	1.37	1.89	0.91	0.05	0.08
drug2 concentration 1000 nM	-1.49	-0.48	0.53	3.29	2.21	1.49	0.17

CN(C)CCNC(=O)c1cccn2c(=O)c3cc4ccccc4cc3nc12 [Bmh-21]
cell viability [%]
Conditions	[1]	[2]	[3]	[4]	[5]	[6]	[7]	[8]	[9]
1 nM	96.4	81.8	91.5	81.3	74.6	59.2	87.3	94.1	94.4
10 nM	> 100	74.6	99.6	89.6	87.5	82.6	95	91.9	90.3
100 nM	> 100	79.8	92.4	93.9	72.1	92.7	90.6	97.3	88.3
1000 nM	67.1	88.3	0.134	3.78	38.9	14.1	42.8	55.1	12.1
10000 nM	10.2	< 0	0.56	1.54	17.3	4.95	3.08	0.342	3.46

CN(C)CCNC(=O)c1cccn2c(=O)c3cc4ccccc4cc3nc12 [Bmh-21] + O=C(O)CC[N+](=O)[O-] [3-nitropropionic acid]
cell viability [%], MV4-11
Conditions	drug1 concentration 5 nM	drug1 concentration 10 nM	drug1 concentration 50 nM	drug1 concentration 100 nM	drug1 concentration 500 nM	drug1 concentration 1000 nM	drug1 concentration 5000 nM
drug2 concentration 5 nM	92.2	> 100	96.9	80.6	72.2	88.4	29.9
drug2 concentration 10 nM	> 100	> 100	> 100	> 100	39.5	77.4	34.1
drug2 concentration 50 nM	91.9	88.3	90.3	> 100	73.8	78.7	57.4
drug2 concentration 100 nM	81.9	> 100	> 100	93.2	77.6	84.5	91.6
drug2 concentration 500 nM	> 100	99.8	96.2	95.9	> 100	96.8	11.1
drug2 concentration 1000 nM	90.9	89.5	> 100	98.2	> 100	57.3	68.4
drug2 concentration 5000 nM	> 100	77.9	66.9	> 100	62.8	59.4	43.1

O=C(Cc1cccc(OC(F)(F)F)c1)Nc1ccc(CCCCc2nnc(NC(=O)Cc3ccccn3)s2)nn1 [CB-839]
cell viability [%]
Conditions	[1]	[2]	[3]	[4]	[5]	[6]	[7]	[8]	[9]
1 nM	91.7	82.7	92.4	92	52.5	58.6	75.6	86.8	67.7
10 nM	94.9	86.7	89.2	91.5	47.9	74.7	69.4	89.6	39.5
100 nM	79.1	76.8	73.2	57.4	24.4	6.64	39.7	88	11.1
1000 nM	84.9	87.8	40.2	61	44.8	21.2	41.4	80.1	9.36
10000 nM	90.9	81	36.6	75.4	68.9	38.3	78.6	99.4	14.5

O=C(/C=C/c1cccnc1)NCCCCC1CCN(C(=O)c2ccccc2)CC1 [Daporinad]
cell viability [%]
Conditions	[1]	[2]	[3]	[4]	[5]	[6]	[7]	[8]	[9]
1 nM	60.3	98.3	80.9	38.2	28.5	6.69	17.1	91.5	3.7
10 nM	51.7	11	24.2	3.86	2.87	< 0	1.32	32.2	2.72
100 nM	24.6	4.49	0.879	2.67	< 0	< 0	2.09	8.2	2.93
1000 nM	25.6	10.4	1.32	2.08	2.87	< 0	< 0	5.73	3.29
10000 nM	19.4	0.503	0.659	0.709	< 0	< 0	0.671	3.19	2.8
